According to patent publication US7781590B2, “Piperidinylalkylcarbamate derivatives, methods for their preparation and the therapeutic use thereof as fatty acid amido hydrolase enzyme inhibitors” (Sanofi-Aventis, priority 2004, dated 2010):
Structures can show the parent of a compound that is named as a salt.

| melting point [°C] | SMILES |
| --- | --- |
| 135 to 137 | CNC(=O)COC(=O)NCCC1CCN(CCc2cc(-c3ccc(Cl)cc3)no2)CC1 [Compound 120, 2-(methylamino)-2-oxoethyl 2-(1-{2-[3-(4-chlorophenyl)isoxazol-5-yl]ethyl}piperidin-4-yl)ethylcarbamate] |
| 121 to 123 | CNC(=O)COC(=O)NCCC1CCN(CCc2ccccc2Cl)CC1 (as salt: HCl) [Compound 57, 2-(methylamino)-2-oxoethyl 2-{1-[2-(2-chlorophenyl)ethyl]piperidin-4-yl}ethylcarbamate] |
| 102 to 104 | CNC(=O)COC(=O)NCCC1CCN(Cc2cc(F)ccc2Cl)CC1 [Compound 22, 2-(methylamino)-2-oxoethyl 2-[1-(2-chloro-5-fluorobenzyl)piperidin-4-yl]ethylcarbamate] |
| 104 to 106 | CNC(=O)COC(=O)NCCC1CCN(Cc2ccccn2)CC1 [Compound 31, 2-(methylamino)-2-oxoethyl 2-[1-(pyridin-2-ylmethyl)piperidin-4-yl]ethylcarbamate] |
| 126 to 128 | CNC(=O)COC(=O)NCC1CCN(CCc2ccc(F)cc2OC)CC1 [Compound 52] |
| 86 to 88 | CNC(=O)COC(=O)NCCC1CCN(Cc2cccc3ccccc23)CC1 [Compound 29, 2-(methylamino)-2-oxoethyl 2-[1-(naphthalen-1-ylmethyl)piperidin-4-yl]ethylcarbamate] |
| 122 to 124 | CNC(=O)COC(=O)NCCC1CCN(CCc2ccc(F)cc2)CC1 [Compound 58, 2-(methylamino)-2-oxoethyl 2-{1-[2-(4-fluorophenyl)ethyl]piperidin-4-yl}ethylcarbamate] |
| 109 to 113 | CNC(=O)COC(=O)NCCC1CCN(CCOc2ccc(Cl)cc2)CC1 [Compound 84, 2-(methylamino)-2-oxoethyl 2-(1-{2-[(4-chlorophenyl)oxy]ethyl}piperidin-4-yl)ethylcarbamate] |
| 161 to 163 | CNC(=O)COC(=O)NCCC1CCN(Cc2nc(-c3ccc(C(F)(F)F)cc3)cs2)CC1 [Compound 106, 2-(methylamino)-2-oxoethyl 2-[1-({4-[4-(trifluoromethyl)phenyl]-1,3-thiazol-2-yl}methyl)piperidin-4-yl]ethylcarbamate] |
| 112 to 114 | CNC(=O)COC(=O)NCCC1CCN(Cc2ccc(F)c(Cl)c2)CC1 [Compound 101, 2-(methylamino)-2-oxoethyl 2-[1-(3-chloro-4-fluorobenzyl)piperidin-4-yl]ethylcarbamate] |
| 87 to 93 | CNC(=O)COC(=O)NCCC1CCN(Cc2ccc3ccccc3c2)CC1 [Compound 30, 2-(methylamino)-2-oxoethyl 2-[1-(naphthalen-2-ylmethyl)piperidin-4-yl]ethylcarbamate] |
| 79 to 81 | CNC(=O)COC(=O)NCCC1CCN(Cc2cc(C)cc(Cl)c2)CC1 [Compound 24, 2-(methylamino)-2-oxoethyl 2-[1-(3-chloro-5-methylbenzyl)piperidin-4-yl]ethylcarbamate] |
| 108 to 110 | CNC(=O)COC(=O)NCCC1CCN(Cc2ccc(F)cc2Cl)CC1 [Compound 100, 2-(methylamino)-2-oxoethyl 2-[1-(2-chloro-4-fluorobenzyl)piperidin-4-yl]ethylcarbamate] |
| 109 to 111 | CNC(=O)COC(=O)NCCC1CCN(Cc2ccc(Oc3ccc(Cl)c(F)c3)cc2)CC1 [Compound 28, 2-(methylamino)-2-oxoethyl 2-{1-[4-(4-chloro-3-fluorophenoxy)benzyl]piperidin-4-yl}ethylcarbamate] |
| 104 to 106 | CNC(=O)COC(=O)NCCC1CCN(Cc2cccc(Cl)c2F)CC1 [Compound 23, 2-(methylamino)-2-oxoethyl 2-[1-(3-chloro-2-fluorobenzyl)piperidin-4-yl]ethylcarbamate] |
